In one experiment the test system is S. mutans. Description: anti-S. mutans bioactivity examination of extract batches. Format: cell-based, Streptococcus mutans. The text has this:
In addition to chemical analysis, all batches, or statistically relevant samples of continuous production processes (e.g., 1/3600 candies; or 1/5000 candies; or 1/10,000 candies or the like) or statistically relevant samples of candy production batches (e.g., 1/10 batches; or 1/20 batches; or 1/50 batches), are examined for bioactivity. While the pure compound of glycyrrhizol A has anti-S. mutans activity at 1 microgram per ml, the mixed compound usually has anti-S. mutans activity at 10-30 microgram per ml.

The subject of another experiment is bacterial adherence. Kind of experiment: inhibition of bacterial adherence / dental caries formation.

Consider `COc1c(CC=C(C)C)c(O)cc2c1-c1oc3cc(O)c(CC=C(C)C)cc3c1CO2` [Glycyrrhizol A], for which the “anti-S. mutans activity at (concentration)” value with S. mutans was 1 microgram per ml. For the compound `CC1(C)[C@@H](O[C@H]2O[C@H](C(=O)O)[C@@H](O)[C@H](O)[C@H]2O[C@@H]2O[C@H](C(=O)O)[C@@H](O)[C@H](O)[C@H]2O)CC[C@]2(C)[C@H]3C(=O)C=C4[C@@H]5C[C@@](C)(C(=O)O)CC[C@]5(C)CC[C@@]4(C)[C@]3(C)CC[C@@H]12` [glycyrrhizin], the “inhibition of dental caries formation by inhibiting bacterial adherence” value in the experiment on bacterial adherence is “can inhibit formation of dental caries by inhibiting bacterial adherence”.

The values above are taken from patent publication US20130236527A1, “LICORICE LOLLIPOP THAT INHIBITS DENTAL CARIES FORMATION” (INTELLIHERB, LLC, priority 2008, published 2013).
